Experimental data published in ChEMBL document CHEMBL5365531, “Structure-Activity Relationship Studies of SARS-CoV-2 Main Protease Inhibitors Containing 4-Fluorobenzothiazole-2-carbonyl Moieties” (J Med Chem, 2023).

How the values were obtained:
[1] = test system: SARS-CoV-2; assay: Antiviral activity against SARS-CoV-2 JPN/TY/WK-521 infected in Vero E6 cells assessed as fold change preincubated with cells for 1 day followed by viral infection and measured after 3 days by qRT-PCR analysis relative to 7-fluoro-N-((S)-1-(((S)-1-(4-fluorobenzo[d]thiazol-2-yl)-1-oxo-3-((S)-2-oxopyrrolidin-3-yl)propan-2-yl)amino)-3,3-dimethyl-1-oxobutan-2-yl)-4-methoxy-1H-indole-2-carboxamide; format: functional, Severe acute respiratory syndrome coronavirus 2; details: time 4 day
[2] = Cytotoxicity against African green monkey Vero E6 cells incubated for 3 days by WST-8 assay; format: toxicity, cell-based, Vero C1008; details: chlorocebus sabaeus, time 3 day
[3] = test system: SARS-CoV-2; assay: Antiviral activity against SARS-CoV-2 JPN/TY/WK-521 infected in Vero E6 cells preincubated with cells for 1 day followed by viral infection and measured after 3 days by qRT-PCR analysis; format: functional, organism-based; details: Severe acute respiratory syndrome coronavirus 2, JPN/TY/WK-521, Vero C1008
[4] = test system: SARS-CoV-2; assay: Antiviral activity against SARS-CoV-2 infected in Vero E6 cells preincubated with cells for 1 day followed by viral infection and measured after 3 days by qRT-PCR analysis; format: functional, organism-based; details: Severe acute respiratory syndrome coronavirus 2, Vero C1008
[5] = test system: SARS-CoV-2; assay: Antiviral activity against SARS-CoV-2 infected in Vero E6 cells assessed as fold change preincubated with cells for 1 day followed by viral infection and measured after 3 days by qRT-PCR analysis relative to YH-53; format: functional, Severe acute respiratory syndrome coronavirus 2; details: time 4 day
[6] = test system: SARS-CoV-2; assay: Antiviral activity against SARS-CoV-2 JPN/TY/WK-521 infected in Vero E6 cells assessed as fold change preincubated with cells for 1 day followed by viral infection and measured after 3 days by qRT-PCR analysis relative to TKB245; format: functional, Severe acute respiratory syndrome coronavirus 2; details: time 4 day
[7] = test system: MOLT-4; assay: Cytotoxicity against human MOLT-4 cells assessed as reduction in cell viability at 3 uM incubated for 12 days by CCK-8 assay; format: toxicity, cell-based; details: molt-4, 288 h, time 12 day
[8] = test system: MT2; assay: Cytotoxicity against human MT2 cells assessed as reduction in cell viability at 3 uM incubated for 12 days by CCK-8 assay; format: toxicity, cell-based; details: mt2, 288 h, time 12 day
[9] = test system: PBMC; assay: Cytotoxicity against human PBMC cells assessed as reduction in cell viability at 3 uM incubated for 12 days by CCK-8 assay; format: toxicity, cell-based; details: 288 h, time 12 day

Structure (SMILES) | fold change (FC) [1] | CC50 at 72 h [2] | EC50 [3] | fold change (FC) [6] | further results
CC(C)(C)[C@H](NC(=O)C(F)(F)F)C(=O)N1C[C@H]2[C@@H]([C@H]1C(=O)N[C@@H](C[C@@H]1CCNC1=O)C(=O)c1nc3ccccc3s1)C2(C)C | 0.071 | > 100000 nM | 15 nM | – | –
COc1cccc2[nH]c(C(=O)N3C[C@H]4[C@@H]([C@H]3C(=O)N[C@@H](C[C@@H]3CCNC3=O)C(=O)c3nc5ccccc5s3)C4(C)C)cc12 | 11 | > 100000 nM | 2500 nM | – | –
COc1ccc(F)c2[nH]c(C(=O)N[C@H](C(=S)N[C@@H](C[C@@H]3CCNC3=O)C(=O)c3nc4c(F)cccc4s3)C(C)(C)C)cc12 | – | > 100000 nM | – | – | EC50 [4]: 340 nM; fold change (FC) [5]: 0.16
CC(C)(C)[C@H](NC(=O)C(F)(F)F)C(=O)N1C[C@H]2[C@@H]([C@H]1C(=O)N[C@@H](C[C@@H]1CCNC1=O)C(=O)c1nc3c(Br)cccc3s1)C2(C)C | – | > 100000 nM | 63 nM | 2.9 | –
CC(C)(C)[C@H](NC(=O)C(F)(F)F)C(=O)N1C[C@H]2[C@@H]([C@H]1C(=O)N[C@@H](C[C@@H]1CCNC1=O)C(=O)c1nc3c(Cl)cccc3s1)C2(C)C | – | > 100000 nM | 19 nM | 0.86 | –
CC(C)(F)[C@H](NC(=O)C(F)(F)F)C(=O)N1C[C@H]2[C@@H]([C@H]1C(=O)N[C@@H](C[C@@H]1CCNC1=O)C(=O)c1nc3c(F)cccc3s1)C2(C)C | – | > 100000 nM | 250 nM | 21 | –
COc1cccc2[nH]c(C(=O)N[C@H](C(=O)N[C@@H](C[C@@H]3CCNC3=O)C(=O)c3nc4ccccc4s3)C(C)(C)C)cc12 | – | > 100000 nM | – | – | EC50 [4]: 2200 nM
CC1(C)[C@@H]2[C@@H](C(=O)N[C@@H](C[C@@H]3CCNC3=O)C(=O)c3nc4c(F)cccc4s3)N(C(=O)c3cc4c(F)ccc(F)c4[nH]3)C[C@@H]21 | 3.1 | > 100000 nM | 750 nM | – | –
CC(C)(C)[C@H](NC(=O)C(F)(F)F)C(=O)NC1(C(=O)N[C@@H](C[C@@H]2CCNC2=O)C(=O)c2nc3c(F)cccc3s2)CCC(F)(F)C1 (some centres not stated) | – | > 100000 nM | 2400 nM | 90 | –
COc1ccc(F)c2[nH]c(C(=O)N3C[C@H]4[C@@H]([C@H]3C(=O)N[C@@H](C[C@@H]3CCNC3=O)C(=O)c3nc5c(F)cccc5s3)C4(C)C)cc12 | 2.7 | > 100000 nM | 560 nM | – | –
CC(C)C[C@H](NC(=O)[C@@H](NC(=O)C(F)(F)F)C(C)(C)C)C(=O)N[C@@H](C[C@@H]1CCNC1=O)C(=O)c1nc2c(F)cccc2s1 | 1 | > 100000 nM | 360 nM | – | –
CC1(C)[C@@H]2[C@@H](C(=O)N[C@@H](C[C@@H]3CCNC3=O)C(=O)c3nc4c(F)cccc4s3)N(C(=O)[C@H](CCC(F)(F)F)NC(=O)C(F)(F)F)C[C@@H]21 | – | > 100000 nM | 590 nM | 14 | –
COc1ccc(F)c2[nH]c(C(=O)N[C@H](C(=O)N[C@@H](C[C@@H]3CCNC3=O)C(=O)c3nc4c(F)cccc4s3)C(C)(C)C)cc12 | – | > 100000 nM | – | – | EC50 [4]: 290 nM; fold change (FC) [5]: 0.13
CC1(C)[C@@H]2[C@@H](C(=O)N[C@@H](C[C@@H]3CCNC3=O)C(=O)c3nc4c(F)cccc4s3)N(C(=O)[C@H](CC(F)(F)F)NC(=O)C(F)(F)F)C[C@@H]21 | – | > 100000 nM | 2800 nM | 34 | –
CC(C)(C)[C@H](NC(=O)C(F)(F)F)C(=O)N1C[C@@H]2CCC[C@@H]2[C@H]1C(=O)N[C@@H](C[C@@H]1CCNC1=O)C(=O)c1nc2c(F)cccc2s1 | – | > 100000 nM | 95 nM | 1.6 | –
CC(C)C(=O)OC[C@H]1O[C@@H](n2ccc(NO)nc2=O)[C@H](O)[C@@H]1O [MOLNUPIRAVIR] | – | – | – | – | Activity [7]: Non-Toxic; Activity [8]: Toxic; Activity [9]: Non-Toxic
